Like-named read-outs stand apart in the source and are kept apart here.

One experiment concerns HCC827 cells. Kind of experiment: cells. Conditions: Homo sapiens, HCC827, read-out: EGFR TKI IC50 in HCC827 cells. The method, then:
(§1) The human cell line HCC827 was purchased from the American Type Culture Collection (Manassas, VA), and the PC9 cell line was obtained from RIKEN Cell Bank (Ibaraki, Japan). […] Gefitinib-resistant cells were referred to as HCC827/GR. […] Osimertinib-resistant cells were referred to as HCC827/OR.
(§2) Cell viability assays were carried out by plating 1,000 cells per well of HCC827 or PC9 resistant cells, respectively, into white transparent-bottom 384-well plates. The cells were treated with each TKI across a 10-dose range from 1 nM to 10,000 nM. After 72 h of drug treatment, cell viability was measured using the CellTiter-Glo 2.0 assay (Promega, Madison, WI).

The subject of a further experiment is HCC827/OR cells. Kind of experiment: Cell viability assay (CellTiter-Glo 2.0), osimertinib-resistant HCC827/OR cells. It is filed as cell-based, human. From the text: (§3) To explore c-MET and AXL mechanisms of EGFR TKI resistance, resistant cells of the EGFR TKI hypersensitive EGFR exon 19 mutant NSCLC cell line, HCC827 and PC9 were generated by exposing these cells to increasing concentrations of EGFR TKI for over 3 months.
(§4) Gefitinib-resistant cells were referred to as HCC827/GR. […] Osimertinib-resistant cells were referred to as HCC827/OR.
On the technique in general: ATP-based viability assays read luminescence as a measure of living cells.

Another experiment has as its system PC9 cells. Put plainly: Cell viability assay, parental PC9 cells. It is filed as cell-based. As to conditions: Homo sapiens, PC-9; parental EGFR TKI-sensitive cells. The method, then:
as §1, §2

Another experiment concerns PC9/ER cells. Kind of experiment: Cell viability assay (CellTiter-Glo 2.0), erlotinib-resistant PC9/ER cells. It is filed as cell-based.
Source text: as §3, §4

The test system of another experiment is HCC827/GR cells. Put plainly: Cell viability assay (CellTiter-Glo 2.0), gefitinib-resistant HCC827/GR cells. It is filed as cell-based, human. Conditions: 72 h drug treatment, read-out: Relative cell viability, IC50 HCC827GR. A digest of the protocol: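 Gefitinib-resistant HCC827 cells, derived by over 3 months' escalating EGFR TKI exposure, seeded at 1,000 cells/well. Treated 72 h with a 10-point dose range from 1 nM to 10,000 nM. Viability read by CellTiter-Glo 2.0 luminescence.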

The next experiment deals with HCC827/ER cells. Put plainly: Cell viability assay (CellTiter-Glo 2.0), erlotinib-resistant HCC827/ER cells. It is filed as cell-based, human. As to conditions: 72 h drug treatment, read-out: Relative cell viability, IC50 HCC827ER.
Source text: as §3, §4

The next experiment has as its target T1, MER (Homo sapiens, UniProt Q12866).
T1 sequence (Q12866 21-999): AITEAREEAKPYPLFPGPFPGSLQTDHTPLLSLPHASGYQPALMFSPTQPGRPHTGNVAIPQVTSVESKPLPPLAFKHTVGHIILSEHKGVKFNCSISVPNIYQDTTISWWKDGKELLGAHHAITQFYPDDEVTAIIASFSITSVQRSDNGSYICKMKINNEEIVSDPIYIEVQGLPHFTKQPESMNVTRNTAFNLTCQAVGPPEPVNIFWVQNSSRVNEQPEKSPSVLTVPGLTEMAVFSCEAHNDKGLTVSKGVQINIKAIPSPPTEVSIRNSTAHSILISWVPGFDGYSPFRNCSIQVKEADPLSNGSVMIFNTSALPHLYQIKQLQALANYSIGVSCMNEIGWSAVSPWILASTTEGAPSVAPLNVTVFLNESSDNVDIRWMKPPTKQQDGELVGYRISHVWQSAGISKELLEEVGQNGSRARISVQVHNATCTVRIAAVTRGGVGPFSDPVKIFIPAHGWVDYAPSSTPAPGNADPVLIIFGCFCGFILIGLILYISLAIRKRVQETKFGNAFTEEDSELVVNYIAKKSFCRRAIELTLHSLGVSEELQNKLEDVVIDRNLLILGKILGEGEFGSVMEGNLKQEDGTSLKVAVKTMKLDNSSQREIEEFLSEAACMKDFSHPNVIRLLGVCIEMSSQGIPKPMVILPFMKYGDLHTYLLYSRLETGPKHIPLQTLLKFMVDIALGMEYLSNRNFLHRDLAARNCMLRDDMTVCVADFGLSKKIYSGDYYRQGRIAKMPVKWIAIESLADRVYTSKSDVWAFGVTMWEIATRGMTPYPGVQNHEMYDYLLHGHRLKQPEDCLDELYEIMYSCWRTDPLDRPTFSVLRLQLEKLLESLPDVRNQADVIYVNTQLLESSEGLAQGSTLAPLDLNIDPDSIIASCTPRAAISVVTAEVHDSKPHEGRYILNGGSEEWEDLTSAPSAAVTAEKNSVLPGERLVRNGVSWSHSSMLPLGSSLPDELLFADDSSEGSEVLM
Kind of experiment: Enzymatic kinase assay (ADP-Glo), MER. It is filed as biochemical. Conditions: poly (Glu4, Tyr1) substrate, 60 min room temperature, ADP-GLO luminescence. The method, then: (§5) All the kinase reactions were performed in 5 μL using tyrosine kinase buffer with 0.2 μg/μL poly (Glu4, Tyr1) substrate, 10 µM ATP, serial dilution of the inhibitor, and incubated at room temperature for 60 min. After the indicated incubation times, 5 μL ADP-GLO™ reagent (Promega, Madison, WI) was added to the reactions and the plate was incubated at room temperature for 40 min. Then, 10 μL of kinase detection reagent was added and after an incubation time of 40 min, luminescence was recorded and IC50 values were determined (Table 1). All 384-well assay plates were read using a GLOMAX™ Discover Microplate Luminometer from Promega (Madison, WI). To plot, analyze the data and calculate all kinase reaction biochemical values, both Microsoft Excel and Prism from GraphPad 7 Software (La Jolla, CA) were used.
All the kinase reactions were performed in 5 μL using tyrosine kinase buffer with 0.2 μg/μL poly (Glu4, Tyr1) substrate, 10 µM ATP, serial dilution of the inhibitor, and incubated at room temperature for 60 min. After the indicated incubation times, 5 μL ADP-GLO™ reagent (Promega, Madison, WI) was added to the reactions and the plate was incubated at room temperature for 40 min. […] All 384-well assay plates were read using a GLOMAX™ Discover Microplate Luminometer from Promega (Madison, WI). […]
A general note: ADP-Glo turns the ADP formed in a reaction into a luminescent signal.

In a further experiment the target is T2, AXL (Homo sapiens, UniProt P30530).
T2 sequence (P30530 26-894): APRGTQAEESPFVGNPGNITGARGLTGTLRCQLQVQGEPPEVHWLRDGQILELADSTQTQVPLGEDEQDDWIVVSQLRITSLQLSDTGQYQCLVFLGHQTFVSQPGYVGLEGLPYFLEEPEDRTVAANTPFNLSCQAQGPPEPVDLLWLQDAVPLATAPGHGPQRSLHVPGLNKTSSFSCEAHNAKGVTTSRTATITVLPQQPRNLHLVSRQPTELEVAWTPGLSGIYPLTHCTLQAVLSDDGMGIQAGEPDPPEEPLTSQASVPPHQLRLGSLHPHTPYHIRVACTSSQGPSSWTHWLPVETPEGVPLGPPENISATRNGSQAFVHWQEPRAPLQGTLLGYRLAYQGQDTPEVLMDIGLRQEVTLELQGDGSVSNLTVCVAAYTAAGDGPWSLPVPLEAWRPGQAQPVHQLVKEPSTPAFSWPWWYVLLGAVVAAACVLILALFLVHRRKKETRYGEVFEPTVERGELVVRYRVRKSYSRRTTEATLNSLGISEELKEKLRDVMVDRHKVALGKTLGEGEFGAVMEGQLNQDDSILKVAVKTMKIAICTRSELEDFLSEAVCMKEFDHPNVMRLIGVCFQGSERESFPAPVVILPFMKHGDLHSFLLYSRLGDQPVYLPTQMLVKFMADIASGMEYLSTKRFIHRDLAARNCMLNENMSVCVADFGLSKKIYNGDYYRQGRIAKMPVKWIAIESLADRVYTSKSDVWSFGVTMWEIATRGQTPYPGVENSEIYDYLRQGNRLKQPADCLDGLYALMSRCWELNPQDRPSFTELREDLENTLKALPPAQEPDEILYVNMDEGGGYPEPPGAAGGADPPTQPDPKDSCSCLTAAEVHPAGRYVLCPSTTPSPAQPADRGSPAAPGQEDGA
Kind of experiment: Enzymatic kinase assay (ADP-Glo), AXL. As to conditions: poly (Glu4, Tyr1) substrate, 60 min room temperature, ADP-GLO luminescence. It is filed as biochemical. The method, then: as §5, with “Then, 10 μL of kinase detection reagent was added and after an incubation time of 40 min, luminescence was recorded and IC50 values were determined (Table 1).” left out

In a further experiment the target is c-MET (Homo sapiens, UniProt P08581). Kind of experiment: Enzymatic kinase assay (ADP-Glo), c-MET. The format is biochemical. As to conditions: poly (Glu4, Tyr1) substrate, 60 min room temperature, ADP-GLO luminescence. The method, then: as §5, with “Then, 10 μL of kinase detection reagent was added and after an incubation time of 40 min, luminescence was recorded and IC50 values were determined (Table 1).” left out

The mark [1] stands for this setting: Table 4, combinations of EGFR TKIs and inhibitor of Formula (I).
[2] abbreviates: Table 2, EGFR TKI resistant cells, combination with EGFR TKI.

Chain of c-MET (P08581 25-1390): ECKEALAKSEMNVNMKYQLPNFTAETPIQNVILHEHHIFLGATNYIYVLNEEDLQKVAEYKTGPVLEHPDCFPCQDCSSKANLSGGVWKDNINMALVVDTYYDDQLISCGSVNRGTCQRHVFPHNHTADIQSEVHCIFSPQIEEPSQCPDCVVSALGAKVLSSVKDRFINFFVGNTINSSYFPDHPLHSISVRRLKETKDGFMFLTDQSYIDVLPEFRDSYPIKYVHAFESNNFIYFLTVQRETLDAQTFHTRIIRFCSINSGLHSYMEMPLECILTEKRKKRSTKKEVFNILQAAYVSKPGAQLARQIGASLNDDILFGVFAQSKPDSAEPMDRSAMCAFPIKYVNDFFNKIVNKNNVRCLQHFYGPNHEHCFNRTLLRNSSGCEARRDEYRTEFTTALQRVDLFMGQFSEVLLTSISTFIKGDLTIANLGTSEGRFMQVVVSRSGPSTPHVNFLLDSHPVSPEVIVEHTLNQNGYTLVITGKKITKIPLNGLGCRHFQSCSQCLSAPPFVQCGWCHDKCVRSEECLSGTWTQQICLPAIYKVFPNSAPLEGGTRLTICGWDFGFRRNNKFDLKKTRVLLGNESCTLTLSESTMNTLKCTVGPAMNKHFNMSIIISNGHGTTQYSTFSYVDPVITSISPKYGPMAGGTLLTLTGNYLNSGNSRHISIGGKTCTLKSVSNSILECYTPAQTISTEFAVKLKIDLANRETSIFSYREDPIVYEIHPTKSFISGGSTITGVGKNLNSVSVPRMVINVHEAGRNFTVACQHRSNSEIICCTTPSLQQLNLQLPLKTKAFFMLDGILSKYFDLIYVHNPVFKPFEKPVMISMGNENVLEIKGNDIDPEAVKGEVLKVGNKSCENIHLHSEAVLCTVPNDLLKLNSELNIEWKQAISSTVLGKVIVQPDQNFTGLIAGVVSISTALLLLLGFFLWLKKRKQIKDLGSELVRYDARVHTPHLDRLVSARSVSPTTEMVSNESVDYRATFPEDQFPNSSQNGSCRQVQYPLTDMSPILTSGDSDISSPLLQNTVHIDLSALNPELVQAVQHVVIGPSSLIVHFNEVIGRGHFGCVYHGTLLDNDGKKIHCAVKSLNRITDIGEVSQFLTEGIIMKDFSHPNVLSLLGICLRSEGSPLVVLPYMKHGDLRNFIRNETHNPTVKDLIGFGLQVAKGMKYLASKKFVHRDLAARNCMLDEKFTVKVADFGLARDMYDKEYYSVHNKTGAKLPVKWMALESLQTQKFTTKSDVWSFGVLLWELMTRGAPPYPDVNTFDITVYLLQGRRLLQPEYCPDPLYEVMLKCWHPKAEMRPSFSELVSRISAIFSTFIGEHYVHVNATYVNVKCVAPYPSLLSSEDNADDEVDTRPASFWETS

For the molecule `C=CC(=O)Nc1cc(Nc2nccc(-c3cn(C)c4ccccc34)n2)c(OC)cc1N(C)CCN(C)C` [osimertinib, reference compound], the IC50 with HCC827 cells was less than 0.3 nM; with HCC827/OR cells (Homo sapiens, HCC827, read-out: EGFR TKI IC50 in HCC827/OR cells) it was more than 1000 nM. Besides, in the experiment with HCC827/OR cells (HCC827/OR versus parental HCC827), the “higher resistance than the parental cells, HCC827/OR” value is 3,000 fold.

On to `C#Cc1cccc(Nc2ncnc3cc(OCCOC)c(OCCOC)cc23)c1` [erlotinib, reference compound], for which the IC50 was less than 10 nM in the experiment on PC9 cells and more than 10 µM in the experiment with PC9/ER cells (Homo sapiens, PC-9/ER, read-out: EGFR TKI IC50 in PC9/ER). The “higher resistance than the parental cells, PC9/ER” value with PC9/ER cells (PC9/ER versus parental PC9) is given as 1,000 fold.

Take “N-(4-(2-amino-3-(3-piperidin-4-yl)prop-1-ynyl)pyridin-4-yloxy)-3-fluorophenyl)-3-cyclohexyl-1-ethyl-2,4-dioxo-1,2,3,4-tetrahydropyrimidine-5-carboxamide [Example 65]”: the IC50 is less than 1000 nM in the experiment on HCC827/GR cells (setting [1]); less than 1000 nM in the experiment with HCC827/ER cells (setting [1]); less than 10 nM at MER (Table 3); less than 1 µM in the experiment on PC9/ER cells (Table 4, 72 h drug treatment, combinations of EGFR TKIs and inhibitor of Formula (I), read-out: Relative cell viability, IC50 PC9ER); less than 10 nM against AXL (Table 3); less than 10000 nM with HCC827/OR cells (Table 4, 72 h drug treatment, combinations of EGFR TKIs and inhibitor of Formula (I), read-out: Relative cell viability, IC50 HCC827OR). This molecule also had an IC50 against c-MET (Table 3) of less than 100 nM.

On to `CC(C)c1c(Oc2ccc(NC(=O)c3cn(C(C)C)c(=O)n(-c4ccc(F)cc4)c3=O)cc2F)ccnc1N` [Example 8], for which the IC50 with HCC827/GR cells (setting [2]) was less than 100 nM; with HCC827/ER cells (setting [2]), less than 100 nM; at MER (Table 1), less than 100 nM; with PC9/ER cells (Table 2, 72 h drug treatment, EGFR TKI resistant cells, combination with EGFR TKI, read-out: Relative cell viability, IC50 PC9ER) it was less than 10 µM; at AXL (Table 1), less than 10 nM; with HCC827/OR cells (Table 2, 72 h drug treatment, EGFR TKI resistant cells, combination with EGFR TKI, read-out: Relative cell viability, IC50 HCC827OR) it was less than 100 nM. The IC50 at c-MET (Table 1) was less than 10 nM.

The values are drawn from patent US12421207B2 (CMG Pharmaceutical Co., Ltd., priority 2022, dated 2025).
